# Tested on: HEK293 cell lysates after 5 minutes serum stimulation
# Experiment: Tagged substrates array: in vitro protein kinase reaction of the tagged peptide mix with cell lysate, sorted on tag array, anti-pTyr immunostaining
# Type: biochemical
# Conditions: Hundred micrograms of total cell lysate, 30 minutes at 37 degree Celsius; anti-pTyr monoclonal antibody mix, Cy5 secondary, GenePix scanner
# Experimental: EDC/NHS combined cross-linking was performed to tag the peptide or substrate which needs to be sorted. Coupling buffer contains no Tris and no phosphate. Peptides and oligonucleotides in equimolar ratios [50 μg/ml in 10 mM sodium acetate buffer (pH 5.0)] were reacted with a 1:1 mixture of N-hydroxysuccinimide NHS and 1 -ethyl-3 -(3 -dimethylaminopropyl) carbodiimide EDC for 2 hours. The excess active groups were then blocked with 1 M ethanolamine (pH 8.5).
# Peptides. Phosphotyrosine-containing and non-phosphorylated peptides were synthesized, HPLC purified and checked by mass spectroscopy. Peptides were stored under nitrogen at -80 degree. Celsius. The synthesized peptides were as following, phosphotyrosine, AEPDpYGALYE PLCgamma, SAAPpYLKTK Stat3-705, DDPSpYVNVQ SHC-317, PDHQpYYNDF SHC-239, TDDGpYMPMS IRS 1-608, GNGDpYMPMS IRS 1-628, SPGEpYVNIE IRS 1-895, KSLNpYIDLD IRS 1-1172, DLSTpYASIN IRS1-1222; non-phosphorylated, AEPDYGALYE, SAAPYLKTK, DDPSYVNVQ and PDHQYYNDF SHC, KDGATMKTF Akt, RGRSRSAPPN BAD, GEGTYGVVYK p34cdc2, GAGTPAATDEK, DGFVLTRLLE beta spectrin, NSIMKCDIDI Gamma actin, PGIADRMQKE beta actin.
# Amino modified oligonucleotides used as tags. The amino modifications can be used either for slides coupling or for peptide coupling, or for coupling to any reactive substrates which needs to be sorted onto the array. Oligonucleotides are chosen with similar Tm and hybridization properties. Oligonucleotides can be substituted by any pair of complementary nucleic acids or PNAs without affecting the sensitivity or completeness of the assay. The length and sequence of the nucleic acids or PNAs is also not important as long as strands complementarity results in hibridization specificity. Here it is described a test experiment with 18 pairs of oligonucleotides. […]
# Slide Overlay. […] After triple washing in TBST, and then TBS, fluorescent complexes are detected by using a GenePix microarrays scanner. […]
row,Sequence,phosphorylation of sorted tagged substrate (FIG. 10)
1,PDHQYYNDF [Substrate S4],strongly phosphorylated
2,SAAPYLKTK [Substrate S2],moderately well phosphorylated
3,AEPDYGALYE [Substrate S1],moderately well phosphorylated

# From patent publication US20010031469A1, “Methods for the detection of modified peptides, proteins and other molecules” (priority 2000, published 2001)
